Assay results: patent US7285703B2, “Plant like starches and the method of making them in hosts” (BASF Plant Science GmbH, priority 1998, dated 2007)

Columns and labels:
[1] = molecular target: T1, maize starch synthase SSI-3 (STSI-3), N-terminally truncated SSI, first 93 amino acids of SSI-1 deleted, N-terminus SIVFVTGE (SEQ ID NO:66) (Zea mays, UniProt O49064); experiment: ADPGlc kinetics of starch synthase SSI-3; format: biochemical; conditions: 5 mg/ml amylopectin as primer, 37° C.
T1 sequence (O49064 with tags, fused parts or gaps): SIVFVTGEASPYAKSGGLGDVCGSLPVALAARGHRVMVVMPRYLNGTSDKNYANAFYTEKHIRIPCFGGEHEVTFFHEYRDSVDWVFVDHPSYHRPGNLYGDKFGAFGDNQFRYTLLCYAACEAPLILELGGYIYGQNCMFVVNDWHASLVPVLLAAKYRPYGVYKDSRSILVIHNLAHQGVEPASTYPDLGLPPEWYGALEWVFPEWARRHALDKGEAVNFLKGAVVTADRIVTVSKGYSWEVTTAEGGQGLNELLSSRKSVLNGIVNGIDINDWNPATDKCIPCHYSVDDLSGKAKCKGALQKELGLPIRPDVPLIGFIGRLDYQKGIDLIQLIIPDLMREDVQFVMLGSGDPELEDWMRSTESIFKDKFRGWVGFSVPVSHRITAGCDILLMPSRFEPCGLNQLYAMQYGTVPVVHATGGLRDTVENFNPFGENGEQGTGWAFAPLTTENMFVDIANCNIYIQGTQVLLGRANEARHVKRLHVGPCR
From the text: (§1) FIG. 58. SSI-1, SSI-2, and SSI-3 construct design. Three forms of SSI were constructed in the pET expression (see Methods). pExs10a encodes SSI-1, the full length maize SSI (583 amino acids) which has the N-terminal sequence CVAELSREGP (SEQ ID NO:64). pExs8 encodes a truncated SSI, SSI-2, with amino acids # 8-52 deleted from the N-terminus of SSI-1 and which has the N-terminal sequence CVAELSR/DLG (SEQ ID NO:65). pExs1d encodes the most truncated form of SSI, SSI-3, with the first 93 amino acids deleted from SSI-1 and which has the N-terminal sequence SIVFVTGE (SEQ ID NO:66). A depiction of the waxygene, encoding GBSS, which has the N-terminal sequence ASAGMNW (SEQ ID NO:67), is also included for comparison. The amino acid motif KS/TGGL (SEQ ID NO:9), the putative binding site for ADGPGlc, in indicated by the triangles. The KS/TGGL (SEQ ID NO:9) motif is located 18 amino acids from the N-terminus in GBSS, while the motif is 106 amino acids from the N-terminus in maize SSI. Drawing not to scale.
(§2) 5 mL of supernatant were used to assay STS and SBE activities as previously described (Preiss) with minor modification. […] The unincorporated [^14C]-ADPGlc was separated with Dowex anion exchange column (200-400 mesh, Sigma Chemical Co.). […] SBE activity was determined by phosphorylase stimulation assay. One unit of activity is defined as 1 mmol Glc incorporated into the a-glucan per min at. […]

[2] = molecular target: T2, maize starch synthase SSI-1 (STSI-1), full length SSI (583 amino acids), N-terminus CVAELSREGP (SEQ ID NO:64) (Zea mays, UniProt O49064); experiment: ADPGlc kinetics of starch synthase SSI-1; format: biochemical; conditions: 5 mg/ml amylopectin as primer, 37° C.
T2 sequence (O49064 with tags, fused parts or gaps): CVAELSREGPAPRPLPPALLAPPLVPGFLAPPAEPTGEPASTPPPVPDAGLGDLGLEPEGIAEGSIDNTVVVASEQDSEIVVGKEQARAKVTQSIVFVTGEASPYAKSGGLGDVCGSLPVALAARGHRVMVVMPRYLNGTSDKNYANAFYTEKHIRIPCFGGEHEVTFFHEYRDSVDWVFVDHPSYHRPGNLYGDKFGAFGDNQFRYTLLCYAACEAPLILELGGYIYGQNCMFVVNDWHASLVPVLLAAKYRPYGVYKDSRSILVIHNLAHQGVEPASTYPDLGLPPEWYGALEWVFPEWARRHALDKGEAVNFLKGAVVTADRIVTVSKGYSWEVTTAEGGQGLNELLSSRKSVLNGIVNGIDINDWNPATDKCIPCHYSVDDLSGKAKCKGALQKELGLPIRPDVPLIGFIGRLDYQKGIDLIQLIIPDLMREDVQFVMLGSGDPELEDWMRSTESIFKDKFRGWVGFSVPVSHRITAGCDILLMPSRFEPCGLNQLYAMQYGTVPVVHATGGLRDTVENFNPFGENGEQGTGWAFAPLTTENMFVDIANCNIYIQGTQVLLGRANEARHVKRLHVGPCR
From the text: as §1, §2

## Nc1ncnc2c1ncn2[C@@H]1O[C@H](COP(=O)(O)OP(=O)(O)O[C@H]2O[C@H](CO)[C@@H](O)[C@H](O)[C@H]2O)[C@@H](O)[C@H]1O [ADPGlc, adenosine diphosphate glucose]
[1]; +citrate
  Vm (ADPGlc kinetics): 26.4 ± 1.4 μmol/min/mg protein
[1]; −citrate
  Vm (ADPGlc kinetics): 14.7 ± 1.3 μmol/min/mg protein
[2]; +citrate
  Vm (ADPGlc kinetics): 18.0 ± 0.5 μmol/min/mg protein
[2]; −citrate
  Vm (ADPGlc kinetics): 6.38 ± 0.88 μmol/min/mg protein
